Laboratory results taken from patent US10053455B2, “Diazaspiroalkaneone-substituted oxazole derivatives as spleen tyrosine kinase inhibitors” (AB SCIENCE, priority 2014, dated 2018).

Key:
murine model of asthma = assay: Mouse model of asthma: eosinophils recruitment in bronchio-alveolar lavage; type: in vivo, Balb/c male mice
Protocol: Balb/c male mice, 8 weeks old, were purchased from Janvier (Le Genest-Saint-Isle; FRANCE) and bred in the animal facility for 4 weeks. Drugs were dissolved in drinking solvent (80% water; 10% Tween 80 and 10% isopropanediol). It was aliquoted and stored at −20° C. Each mouse received drugs twice a day. The weight of animals was calculated before and after treatment.
Mice, 9 weeks of age, were sensitized with 50 μg of ovalbumin (Sigma-Aldrich, Germany) adsorbed to 2 mg Al(OH)3 (Prolabo, France) and diluted in physiological saline (0.9% NaCl). Ovalbumin was injected intraperitoneally on days 1 and 7. Sensitization was followed by intranasal challenges with 10 μg of ovalbumin diluted in 0.9% NaCl, each day from day 18 to day 21. On days 17 to 21, animals treated with drugs received 100 μl of a solution at 15 mg/ml, at 7.5 mg/ml or at 3.75 mg/ml administered per os twice a day during 5 days. These treatments corresponded to concentration of 60 mg/mouse kg, 30 mg/mouse kg and 15 mg/mouse kg respectively.
Bronchio-alveolar lavage (BAL) was performed after the animals were disconnected from the FlexiVent®. The airways were lavaged with 5 ml (10 times 0.5 ml) ice cold 0.9% NaCl 2.6 mM EDTA. BAL samples were centrifuged at 1200 rpm for 5 minutes at 4° C. Pellet cells were collected and erythrocytes lysed by adding 1.5 ml deionized water for 30 seconds. After neutralization with 0.5 ml of 0.6M KCl, cells were centrifuged at 1200 rpm for 5 minutes at 4° C. BAL samples were used to count the total cell number and to perform cytospins (shandon, Pontoise). Cell types were identified by morphological criteria after Hemacolor (Merck) staining.
Mice were sensitized and challenged with ovalbumin as described in protocol assays above. The mice were distributed in groups of 5-6 animals that were treated twice daily with 7.5 to 60 mg/Kg of anti-SYK/KIT drugs (PO).

[1] = test system: primary human adult cardiomyocytes; assay: WST-1 cell survival/proliferation assay on human cardiomyocytes; type: cell-based; settings: Human Cardiac Myocyte
Protocol: WST-1 cell survival/proliferation assay (Roche Diagnostic ref No 1644807) was performed on both primary human adult cardiomyocytes and rat neonatal cardiac myocytes.
Human cardiomyocytes were isolated from normal human ventricle tissue of the adult heart and were able to proliferate for a number of passage. Neonatal ventricular Clonetics® Rat Cardiac Myocytes (P1-3) retained their contractile property and were electrophysiologically active in culture. 1.10^4 primary rat cells or 2-2.5 10^4 adult human cells were plated per well of a 96 wells plates. The cells were allowed to adhere to the plates for 5 days before drug treatment. Treatment was initiated by addition of a 2× drug solution of ½ serial dilutions ranging from 0 to 10 μM. Cells were grown for 48 h at 37° C. and then incubated with 10 μl/well of WST-1 reagent for 4 h at 37° C. The amount of formazan dye formed was quantified by its absorbance at 450 nm using a scanning multiwell spectrophotometer (MultiSkan MS, Thermo-LabSystems, France). A blank well without cells was used as a background control for the spectrophotometer and all assays were performed in triplicate.

[2] = test system: Murine bone marrow mast cells (BMMCs); assay: IgE-mediated mast cell degranulation assay (β-hexosaminidase release); type: cell-based, C57BL/6J mice
Protocol: In vitro mast cell degranulation assay monitored by released of β-hexosaminidase. Murine bone marrow mast cells (BMMCs) are obtained by flushing bone marrow cells from the femurs of C57BL/6J mice, then cultured for 3-4 weeks in RPMI containing mouse recombinant IL-3 (30 ng/ml). RBL-2H3 is a rat basophile cell line maintained in monolayer culture in EMEM supplemented with 20% FCS, 1 mM Glutamine and 1× antibiotics. Cells were sensitized overnight with 0.2 μg/ml anti-DNP-IgE (Sigma-Aldrich D8406). […] After incubation 90 min at 37° C., the reaction was quenched by addition of 100 μl of sodium carbonate buffer (0.1M Na2CO3/NaHCO3 pH 10.0). β-hexosaminidase activity was quantified by reading plate absorbance at 405 nm with reference at 620 nm using a PolarSTAR reader plate (BMG labech).
The activity of anti-SYK compounds was tested in an IgE-mediated mast cell degranulation assay. SYK has been identified to be critical for the initiation of mast cell mediator release following the aggregation of FcεRI.

c-Ret mut = assay: HTRF kinase assay, c-Ret mut; type: biochemical; settings: enzymatic determination
Protocol: Most of the kinases tested in this study were cloned, expressed and purified in the facilities of the inventors. They were expressed either as N-terminus hexahistidine-, hexahistidine-asparagine- or GST-tagged enzymes in a baculovirus or in a Colibacille expression system. Remaining enzymes (JAKs) were purchased from Millipore or Proqinase. For each enzyme, steady state kinetic parameters were determined and validated with known inhibitors.
The analysis of the effect of compounds on kinase activity was assessed with the HTRF® KinEASE assay (Cisbio International), an immuno-assay based on the quantification of the level of phosphorylation of a biotinylated peptide substrate using anti-phospho-specific antibody labeled with Europium (Eu^3+) cryptate. This assay comprises two steps: —an enzymatic step, during which the peptide substrate, the kinase, ATP, Mg^2+ and/or Mn^2+ are incubated with varying concentration of drug (from 0 to 10 μM); —a detection step, at the end of the reaction (stopped by addition of EDTA which chelates Mg^2+), the antibody anti-phospho peptide-Eu^3+ (emission 620 nm) and streptavidin XL-665 (emission 665 nm) are added to the reaction mix. […] Results are expressed in delta fluorescence (DF) unit defined as follow DF %=[(ratio−ratio blank)/(ratio blank)]*100, where ratio=(665 nm/620 nm)*10^4. […]

[3] = test system: Salmonella typhimurium strain TA100; settings: Salmonella typhimurium
Protocol: (§1) Mutagenic activity of test compounds and their metabolites (produced by rat liver S9 fraction) was evaluated in the Salmonella typhimurium strains TA100 and TA98 according to the Ames assay (Toxicology in vitro, (2001), 15: 105-114). […] The results are expressed as a mutagenicity ratio in comparison to solvent controls.
(§2) The results are expressed as a ratio of the number of colonies over the number of colonies in the negative control (DMSO).

[4] = test system: Salmonella typhimurium strain TA98; assay: AMES mutagenic assay, TA98 strain; settings: TA98, presence of S-9, 1 μg per well (positive control)
Protocol: as §1, §2

[5] = test system: murine model of arthritis; assay: K/BxN serum mouse model of rheumatoid arthritis: ankle thickening and arthritis score; type: in vivo, C57Bl/6 mice; settings: 50 mg/kg b.i.d.
Protocol: K/B×N serum pools were prepared from arthritic mice at 8 weeks of age. The mice were pre-treated with SYK inhibitors by two per os administration for two days before induction of arthritis. Arthritis was induced in the C57Bl/6 mice (8 weeks of age) by intraperitoneal injection (7.5 μl serum per g weight) at days 0 and 2.
The treatment with SYK inhibitors was continued for 13 days. The control mice were injected with solvent before the induction of arthritis and during the course of the disease. The compounds were dissolved in a solution containing 10% of Tween 80 and 10% 1-2 propandiol. It was prepared before administration.
Ankle thickening measure, being defined as the difference in ankle thickness from the day 0, was measured using a precision calliper. Arthritis/clinical score was defined by sum of scores of each lim (0 no disease; 1 mild swelling of paw or of just of few digits; 2 clear joint inflammation; 3 severe joint inflammation) maximum score=12.
K/B×N was a murine model of spontaneous rheumatoid arthritis that mimics many of the clinical and histological features of human disease with synovitis predominantly in the distal small joints. Arthritis was induced by intraperitoneal injection of arthritis serum of K/B×N mice at days 0 and 2 as described in protocol assays above. Compound 001 was tested at 15 and 50 mg/kg/day b.i.d. and compared with Masitinib at 50 mg/kg/day b.i.d., an AB Science drug candidate for treating rheumatoid arthritis (Arthritis Res Ther., (2009), 11(3):R95). Ankle thickening and arthritis score were used to monitor the in vivo activity of the compounds.

[6] = Experiment #1, 2 × 30 mg/kg/day PO

IC50 (c-Ret mut) [nM]	SMILES	Percentage of Eosinophils recruitment in Bronchio-alveolar lavage (BAL) (murine model of asthma; [6]) [%]	% cell viable at 1 μM, Hu-CM ([1]; 1 μM) [%]	IC50 ([1]; 48 h, read-out: Drug-induced cytotoxicity IC50, Hu-CM) [nM]	β-hexosaminidase activity (% control untreated cells) ([2]; 0.01 μM) [%]	β-hexosaminidase activity (% control untreated cells) ([2]; 0.1 μM) [%]	β-hexosaminidase activity (% control untreated cells) ([2]; 1 μM) [%]	Ratio treated/solvent [3]	Ratio treated/solvent [4]	Percentage of Eosinophils recruitment in Bronchio-alveolar lavage (BAL) (murine model of asthma; Experiment #1, 2 × 7.5 mg/kg/day PO) [%]	Percentage of Eosinophils recruitment in Bronchio-alveolar lavage (BAL) (murine model of asthma; Experiment #1, 2 × 25 mg/kg/day PO) [%]	Percentage of Eosinophils recruitment in Bronchio-alveolar lavage (BAL) (murine model of asthma; Experiment #2, 2 × 30 mg/kg/day PO) [%]	Ankle Thickening Score [5] [% P < 0.05]	Arthritis Score [5] [%]
500	COc1cc(Nc2ncc(F)c(Nc3ccc4c(n3)NC(=O)C(C)(C)O4)n2)cc(OC)c1OC [Compound R406]	−31	−18	2600	78 ± 11	16 ± 6	3 ± 3	–	–	–	–	–	–	–
–	Nc1ccc2cc3ccccc3cc2c1 [Compound 2-AM, 2-Anthramine, reference compound]	–	–	–	–	–	–	18.1	138.1	–	–	–	–	–
–	Cc1ccc(NC(=O)c2ccc(CN3CCN(C)CC3)cc2)cc1Nc1nc(-c2cccnc2)cs1 [Masitinib]	−56	–	–	–	–	–	–	–	−15	−35	−47	−27	−15
